From patent US20110287026A1, “SIRT4 AND USES THEREOF” (President and Fellows of Harvard College, priority 2008, published 2011)

Tests used:
Format in all cases: cell-based, mouse
[1] = system: fatty acid oxidation in primary hepatocytes; experiment: Oxidation of [3H]palmitate in primary hepatocytes
Method: Primary hepatocytes were isolated using a two-step perfusion protocol, based on previous methods (Lin et al., (2004) Cell 119, 121-135.). Briefly, livers were perfused first with Hanks balanced salt solution (HBSS, pH 7.4), containing glucose (1.0 g/l), EDTA (0.2 g/l), HCO3 (2.1 g/l) and KCl (0.4 g/l) for 5 minutes. Next, livers were perfused for 15 min with a collagenase buffer (pH 7.4, Invitrogen). After perfusion, livers were dissected, minced, filtered, and hepatocytes purified using Percoll (Sigma) and plated (500,000 cells per well) on collagen coated 6 well plates (BD Biosciences) in DMEM (4.5 g/l glucose) containing 10% FBS, 2 mM pyruvate, 2% Pen/strep, […] and 100 nM insulin. Typical primary hepatocyte isolations yielded 12-14×10^6 cells per liver with 96%-98% cell viability (assessed by Trypan blue exclusion assay). Two hours after plating, medium was replaced with maintenance medium (DMEM with 0.2% BSA, 2 mM pyruvate, 2% Pen/strep, 0.1 mM dexamethasone and 1 nM insulin). Fatty acid oxidation assays were performed one day after isolation.
Cells were incubated overnight in culture medium containing 100 μM palmitate (C16:0) and 1 mM carnitine. In the final 2 hours of incubation, cells were pulsed with 1.7 μCi [9,10(n)-^3H]palmitic acid (GE Healthcare), and the medium was collected to analyze the released ^3H2O, formed during cellular oxidation of [^3H]palmitate. In brief, medium was TCA precipitated, supernatants were neutralized with NaOH and loaded onto ion exchange columns packed with DOWEX 1×2-400 resin (Sigma). The radioactive product was eluted with water and quantitated by liquid scintillation counting. Oxidation of [^3H]palmitate was normalized to protein content using Bio-Rad DC protein assay.
Ultimately, the up-regulation of lipid catabolism gene expression during nutrient deprivation leads to enhanced rates of fatty acid oxidation. […] To test this model, the rates of oxidation of palmitate, a saturated long chain fatty acid, were analyzed in primary MEFs and primary hepatocytes isolated from SIRT4 WT and KO mice. […]

[2] = system: PPARα target gene Pdk4; experiment: Induction of PPARα target gene Pdk4 in MEFs exposed to WY14643 (quantitative RT-PCR); conditions: 50 μM WY14643
Method: Mouse embryonic fibroblasts (MEFs) were isolated on embryonic day 12.5-14.5 from heterozygous females that were mated with heterozygous males. Primary MEFs were cultured in DMEM containing 10% FBS and 0.1 mM BME and were used between passages 2 and 5.
RNA was isolated from frozen liver tissue of overnight fasted mice or from cells using Trizol (Invitrogen) according to the manufacturer's instructions and further purified using RNeasy columns (Qiagen). Amplification and detection of target and reference cDNA samples was performed on a Lightcycler 480 (Roche) using Lightcycler 480 Sybr Green I Mastermix (Roche). A standard curve was generated for all genes using serial dilutions of a pool prepared from all cDNA samples. mRNA levels of target genes were normalized using beta 2 microglobulin (B2m), peptidyl-prolyl isomerase (Ppia) and ribosomal protein 16 (Rps16) as reference genes.
To determine whether SIRT4 is a bona fide repressor of PPARα in a cell-autonomous manner, the induction of the PPARα target gene Pdk4 was examined in SIRT4^−/− and SIRT4′^+/+ mouse embryonic fibroblast (MEF) cell lines exposed to the PPARα agonist WY14643 (WY), as described above.

[3] = system: mitochondrial fatty acid oxidation in primary MEFs; experiment: Oxidation of [3H]palmitate in primary MEFs; conditions: SIRT4 KO and WT MEFs (both cell types)
Method: Mouse embryonic fibroblasts (MEFs) were isolated on embryonic day 12.5-14.5 from heterozygous females that were mated with heterozygous males. Primary MEFs were cultured in DMEM containing 10% FBS and 0.1 mM BME and were used between passages 2 and 5. Cells were incubated overnight in culture medium containing 100 μM palmitate (C16:0) and 1 mM carnitine. In the final 2 hours of incubation, cells were pulsed with 1.7 μCi [9,10(n)-^3H]palmitic acid (GE Healthcare), and the medium was collected to analyze the released ^3H2O, formed during cellular oxidation of [^3H]palmitate. In brief, medium was TCA precipitated, supernatants were neutralized with NaOH and loaded onto ion exchange columns packed with DOWEX 1×2-400 resin (Sigma). The radioactive product was eluted with water and quantitated by liquid scintillation counting. Oxidation of [^3H]palmitate was normalized to protein content using Bio-Rad DC protein assay. […] To test this model, the rates of oxidation of palmitate, a saturated long chain fatty acid, were analyzed in primary MEFs and primary hepatocytes isolated from SIRT4 WT and KO mice. The CPT1a inhibitor, etomoxir, (Baht and Saggerson, 1989) was used to specifically block mitochondrial import of fatty acids.

## NC(=O)C1CCCc2c1[nH]c1ccc(Cl)cc21 (stereo not drawn) [Ex 527]
[1]; SIRT4 KO hepatocytes
  level of Fatty Acid Oxidation: significantly reduced
[1]; WT hepatocytes
  rate of Fatty Acid Oxidation: did not significantly alter

## Cc1cccc(Nc2cc(Cl)nc(SCC(=O)O)n2)c1C [WY14643]
[2]; MEFs lacking SIRT4
  stimulation of Pdk4 expression compared with WT cells: more than doubled
[2]; wild-type MEFs
  increase in Pdk4 expression: 2 fold

## CCOC(=O)[C@@]1(CCCCCCOc2ccc(Cl)cc2)CO1 [etomoxir]
[3]
  fatty acid oxidation ([3H]palmitate): inhibited fatty acid oxidation strongly
[1]; both WT and SIRT4 KO hepatocytes
  mitochondrial fatty acid oxidation ([3H]palmitate): effectively blocked mitochondrial fatty acid oxidation
